Results published in ChEMBL document CHEMBL1201862, “PubChem BioAssay data set” (2004).
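48-hour exposure; five concentrations; linearly interpolated endpoints. GI50: concentration for 50% inhibition of growth.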 The source made the active and inactive calls. No stated cut-off is given here; in the data, active = GI50 up to about 1.1 µM and inactive = higher.

Legend:
Experiment in all cases: NCI anticancer screen, dose series, 48 h
HCT-116 = tested on: HCT-116
SN12C = tested on: SN12C
SW-620 = tested on: SW-620
OVCAR-4 = tested on: OVCAR-4
HL-60 = tested on: HL-60
OVCAR-8 = tested on: OVCAR-8
SNB-19 = tested on: SNB-19
K562 = tested on: K562
RPMI-8226 = tested on: RPMI-8226
U-251 = tested on: U-251
M14 = tested on: M14
DU-145 = tested on: DU-145
HCC 2998 = tested on: HCC 2998
MCF7 = tested on: MCF7
CCRF-CEM = tested on: CCRF-CEM
PC-3 = tested on: PC-3
EKVX = tested on: EKVX
NCI-H226 = tested on: NCI-H226
NCI-H460 = tested on: NCI-H460
LOX IMVI = tested on: LOX IMVI

Compound: C/C(=N/NC(=S)Nc1ccccc1C)c1ccccn1
- GI50 (HCT-116): < 0.0152 µM (active)
- GI50 (SN12C): 0.269 µM (active)
- GI50 (SW-620): < 0.0177 µM (active)
- GI50 (OVCAR-4): 0.279 µM (active)
- GI50 (HL-60): 0.0143 µM (active)
- GI50 (OVCAR-8): 0.107 µM (active)
- GI50 (SNB-19): 2.43 µM (inactive)
- GI50 (K562): < 0.0145 µM (active)
- GI50 (RPMI-8226): < 0.0188 µM (active)
- GI50 (U-251): 0.0571 µM (active)
- GI50 (M14): < 0.0258 µM (active)
- GI50 (DU-145): 1.63 µM (inactive)
- GI50 (HCC 2998): 6.27 µM (inactive)
- GI50 (MCF7): 0.0164 µM (active)
- GI50 (CCRF-CEM): 0.0206 µM (active)
- GI50 (PC-3): < 0.0153 µM (active)
- GI50 (EKVX): 0.167 µM (active)
- GI50 (NCI-H226): 0.075 µM (active)
- GI50 (NCI-H460): 0.0818 µM (active)
- GI50 (LOX IMVI): < 0.0149 µM (active)

Compound: CNc1ccc([N+](=O)[O-])cc1C(=O)N1CCC[C@H]1CO
- GI50 (HCT-116): > 100 µM (inactive)
- GI50 (SN12C): > 100 µM (inactive)
- GI50 (SW-620): > 100 µM (inactive)
- GI50 (OVCAR-4): > 100 µM (inactive)
- GI50 (HL-60): > 100 µM (inactive)
- GI50 (OVCAR-8): > 100 µM (inactive)
- GI50 (SNB-19): > 100 µM (inactive)
- GI50 (K562): > 100 µM (inactive)
- GI50 (RPMI-8226): > 100 µM (inactive)
- GI50 (U-251): > 100 µM (inactive)
- GI50 (M14): > 100 µM (inactive)
- GI50 (DU-145): > 100 µM (inactive)
- GI50 (HCC 2998): > 100 µM (inactive)
- GI50 (MCF7): > 100 µM (inactive)
- GI50 (CCRF-CEM): > 100 µM (inactive)
- GI50 (PC-3): > 100 µM (inactive)
- GI50 (EKVX): > 100 µM (inactive)
- GI50 (NCI-H226): 19.5 µM (inactive)
- GI50 (NCI-H460): > 100 µM (inactive)
- GI50 (LOX IMVI): > 100 µM (inactive)

Compound: CN1CCC(CNC(=O)CCCCCCCCC(=O)NCC2(c3ccccc3)CCN(C)CC2)(c2ccccc2)CC1
- GI50 (HCT-116): 60.1 µM (inactive)
- GI50 (SN12C): > 100 µM (inactive)
- GI50 (SW-620): > 100 µM (inactive)
- GI50 (OVCAR-4): > 100 µM (inactive)
- GI50 (HL-60): > 100 µM (inactive)
- GI50 (OVCAR-8): > 100 µM (inactive)
- GI50 (SNB-19): > 100 µM (inactive)
- GI50 (K562): 77.1 µM (inactive)
- GI50 (RPMI-8226): > 100 µM (inactive)
- GI50 (U-251): > 100 µM (inactive)
- GI50 (M14): 57.3 µM (inactive)
- GI50 (DU-145): > 100 µM (inactive)
- GI50 (HCC 2998): > 100 µM (inactive)
- GI50 (MCF7): > 100 µM (inactive)
- GI50 (CCRF-CEM): 84.7 µM (inactive)
- GI50 (PC-3): > 100 µM (inactive)
- GI50 (EKVX): 8.22 µM (inactive)
- GI50 (NCI-H226): > 100 µM (inactive)
- GI50 (NCI-H460): > 100 µM (inactive)
- GI50 (LOX IMVI): > 100 µM (inactive)
